Data: patent publication US20240172750A1, “5-Fluoro-4-Imino-3-Methyl-1-Tosyl-3,4-Dihydropyrimidin-2(1H)-One for Controlling Plant Diseases” (Adama Makhteshim Ltd., priority 2021, published 2024)

Tests used:
[1] = tested on: Pseudoperonospora cubensis (downy mildew); test: Glasshouse trial, downy mildew in cucumber, foliar treatment; type: in vivo; details: cucumber (Bosco); 250 OD at 100, 125, 150, 200 g ai/ha, 3 applications; 21 DA-C
Procedure: The trial was carried out in a commercial glasshouse in Vittoria (RG)—Sicily region (Southern Italy) to evaluate the efficacy against Pseudoperonospora cubensis (downy mildew) and the selectivity on cucumber (Bosco variety) of ADF-16 250 OD at 100, 125, 150 and 200 g ai/ha in comparison to AIRONE PIU at 630 g ai/ha and EQUATION PRO at 21 g ai/ha.
Each plot (2 m×5 m, 2 rows per plot) consisted of at least 10 plants and 4 replicates per treatment were carried out. The soil used for the trial was a mix of peat and perlite. 3 applications were carried out as follows: A: early curative (disease symptoms lower than 5%), B: 7-10 days from A and C: 7-10 days from B. The corresponding treatments dates were: 16 Nov. 2020 (BBCH 64), 23 Nov. 2020 (BBCH 65) and 30th of November (BBCH 67)
The application was carried out with a backpack sprayer OleomacSP126 and a water volume of 1000 L/ha.
Phytotoxicity, if any, was assessed 7, 14 and 21 days form each application and starting from the first symptoms the percentage of affected leaf area (% severity) as well as the percentage of affected leaves (% incidence) was measured.

[2] = tested on: Erysiphe betae (powdery mildew); test: Greenhouse screening test, powdery mildew in sugar beet; type: in vivo; details: starting from 100 g ai/ha, applied one day after inoculation
Procedure: The screening test was conducted in a greenhouse in Gerichshain, Kupferstraße 6, Germany. The test was performed from application until 28 days after treatment. The efficacy and phytotoxic symptoms of compound of formula I to the plant species sugar beet were examined with a water control under greenhouse conditions. During the whole trial period the plants were stored at 12.6° C.-24.2° C. and 41.9-78.2% relative humidity.
The inoculation of the leaves was carried out. A spore suspension was produced. Infested leaves of sugar beets from a field were put in water for some minutes to get a spore suspension. For better homogeneity Tween 20 (Polysorbat) was added to the spore solution (0.1%). Two diseases were observed on the sampled leaves, Uromyces betae and Erysiphe betae, just E. betae infested the plants in this screening trial. […]
The application was carried out once one day after inoculation in an automatic application cabin at a spray volume equivalent to 200 L/ha. During the observation period of 28 days after treatment (DAT), the plants were assessed weekly for growth stage, leaf diseases and phytotoxicity. […]

Phytophtora infestans = type: in vivo; details: potato; 150 g ai/ha vs CUPRIZOL S 330 g ai/ha
Bobwhite quail = test: Ecotoxicity: birds, acute; type: in vivo
From the text: (§1) The ecotoxicity of flumetylsulforim was investigated in numerous studies in accordance with the strict requirements for the approval of active substances in the EU.

Rabbit = test: Ecotoxicity: mammals, long-term; type: in vivo
From the text: as §1

Ecotoxicity: fish, acute = details: in vivo, Rainbow trout
From the text: as §1

[3] = Ecotoxicity: aquatic invertebrates, acute; type: in vivo; details: in vivo, Daphnia magna
From the text: as §1

Daphnia magna = test: Ecotoxicity: aquatic invertebrates, acute; type: in vivo; details: wheats and barley at 2 × 100 g/ha
From the text: as §1

Honeybee [4] = test: Ecotoxicity: honeybee, acute oral; type: in vivo
From the text: as §1

Honeybee [5] = test: Ecotoxicity: honeybee, chronic larvae; type: in vivo
From the text: as §1

Parasitoid wasp = test: Ecotoxicity: non-target arthropods, reproduction; type: in vivo
From the text: as §1

Predatory mite = test: Ecotoxicity: non-target arthropods, reproduction; type: in vivo; details: wheats and barley at 2 × 100 g/ha
From the text: as §1

Eisenia fetida = test: Ecotoxicity: earthworms, long-term; type: in vivo
From the text: as §1

[6] = tested on: Soil microbial activity (Nitrogen activity); test: Ecotoxicity: soil microbial activity, long-term
From the text: as §1

Carrot = test: Non-target terrestrial plants, vegetative vigour; type: in vivo
From the text: as §1

Common oat = test: Non-target terrestrial plants, vegetative vigour; type: in vivo
From the text: as §1

Cucumber = test: Non-target terrestrial plants, vegetative vigour; type: in vivo
From the text: as §1

Maize = test: Non-target terrestrial plants, vegetative vigour; type: in vivo
From the text: as §1

Oil seed rape = test: Non-target terrestrial plants, vegetative vigour; type: in vivo
From the text: as §1

Onion = test: Non-target terrestrial plants, vegetative vigour; type: in vivo
From the text: as §1

Ryegrass = test: Non-target terrestrial plants, vegetative vigour; type: in vivo
From the text: as §1

Soybean = test: Non-target terrestrial plants, vegetative vigour; type: in vivo
From the text: as §1

Sugar beet = test: Non-target terrestrial plants, vegetative vigour; type: in vivo
From the text: as §1

Sunflower = test: Non-target terrestrial plants, vegetative vigour; type: in vivo
From the text: as §1

[7] = wheats and barley at 2 × 100 g/ha

Procedure for Cercospora kikushi: The trial is carried out in open field and no artificial inoculation is performed.
To test for fungicidal control against the late season disease, each plot (3 m×5 m) is sprayed with one of the treatments from Table 17. Each treatment is made of 4 replicates.
Three applications are made, the first approximately 14 days before flowering followed by a second one at R1 and the third at R1+14 days. A fourth application is considered based on the development of the disease.
Assessments are done before all sprays and at 7, 14 and 21 days after the last spray. The whole plot is assessed considering the 3 plant parts (bottom, mid and upper). The final grade is the mean of the 3 scores (bottom, mid and upper).
The whole plot is assessed for defoliation. The defoliation assessment takes place at R6-R7 stage when the untreated control reaches 80 to 90% defoliation. The harvest assessment is done from the middle of the plot covering at least 8 m 2/plot.
Procedure for Corynespora cassiicola: The inoculation of Corynespora cassiicola and Colletotrichum dematium var. truncatum is done with infected leaves from the field few days after the application.
To test for fungicidal control against the two necrotrophic diseases, the soybean plants, grown in pots, are sprayed at V2 with each of the above treatments. 5 pots with 3 soybean plants each are considered, each treatment counts for 4 replicates.
Between 14 and 21 days from the inoculation the severity (%) of the infection is assessed.

For `Cc1ccc(S(=O)(=O)n2cc(F)c(=N)n(C)c2=O)cc1` [compound of formula I, 5-fluoro-4-imino-3-methyl-1-tosyl-3,4-dihydropyrimidin-2(1H)-one], the “control of the disease (downy mildew)” value [1] was “significant control of the disease”, the “reduction of the affected leaf area compared to the UTC” value [2] was > 60% and the “control versus reference treatment” value (Phytophtora infestans) was “significant better control than the reference treatment”. For the same compound, the LD50 (Bobwhite quail) was “LD50 > 2000 mg/kg bw”, the NOED (Rabbit) was “NOED = 15 mg/kg bw/d” and the “Risk at current use pattern” value (Rabbit; [7]) was “Acceptable”. For the same compound, the LC50 (Ecotoxicity: fish, acute) was 5.41 µg/mL, the EC50 [3] was > 10 µg/mL and the “Risk at current use pattern” value (Daphnia magna) was “Acceptable”. For the same compound, the LD50 (Honeybee [4]) was “LD50 > 3.727 μg/bee”, the NOEC (Honeybee [5]) was “NOEC > 250 mg/kg diet” and the “Risk at current use pattern” value (Honeybee [5]; [7]) was “Acceptable”. The LR50 (Parasitoid wasp) was “LR50 > 189 g/ha”, the “Risk at current use pattern” value (Parasitoid wasp; [7]) was “Acceptable” and the “Risk at current use pattern” value (Predatory mite) was “Acceptable”. The NOEC (Eisenia fetida) was “NOEC = 309 mg/kg dws”, the “Risk at current use pattern” value (Eisenia fetida; [7]) was “Acceptable” and the “Ecotoxicity endpoint (nitrogen activity)” value ([6]; soil microbial activity) was >10.3 mg/kg dws. The “Risk at current use pattern” value ([6]; soil microbial nitrogen activity, wheats and barley at 2 × 100 g/ha) was “Acceptable”, the ER50 (Carrot) was “ER50 > 189 g/ha” and the “Risk at current use pattern” value (Carrot; [7]) was “Acceptable”. The ER50 (Common oat) was “ER50 > 189 g/ha”, the “Risk at current use pattern” value (Common oat; [7]) was “Acceptable” and the ER50 (Cucumber) was “ER50 > 189 g/ha”. The “Risk at current use pattern” value (Cucumber; [7]) was “Acceptable”, the ER50 (Maize) was “ER50 > 189 g/ha” and the “Risk at current use pattern” value (Maize; [7]) was “Acceptable”. For the same compound, the ER50 (Oil seed rape) was “ER50 > 189 g/ha”, the “Risk at current use pattern” value (Oil seed rape; [7]) was “Acceptable” and the ER50 (Onion) was “ER50 > 189 g/ha”. For the same compound, the “Risk at current use pattern” value (Onion; [7]) was “Acceptable”, the ER50 (Ryegrass) was “ER50 > 189 g/ha” and the “Risk at current use pattern” value (Ryegrass; [7]) was “Acceptable”. For the same compound, the ER50 (Soybean) was “ER50 > 189 g/ha”, the “Risk at current use pattern” value (Soybean; [7]) was “Acceptable” and the ER50 (Sugar beet) was “ER50 > 189 g/ha”. For the same compound, the “Risk at current use pattern” value (Sugar beet; [7]) was “Acceptable”, the ER50 (Sunflower) was “ER50 > 189 g/ha” and the “Risk at current use pattern” value (Sunflower; [7]) was “Acceptable”. The phytotoxicity (Corynespora cassiicola; in vivo) was “no significant phytotoxicity”, the “control of Corynespora cassiicola” value (Corynespora cassiicola; soybean, 50-200 g ai/ha) was “effectively controls” and the phytotoxicity (Cercospora kikushi; in vivo) was “no significant phytotoxicity”. The “control of Cercospora kikushi” value (Cercospora kikushi; soybean, 50, 100 and 200 g ai/ha) was “effectively controls”.
